The values below come from patent publication US9758459B2, “Allosteric modulators of factor XIa as anticoagulant agents” (VIRGINIA COMMONWEALTH UNIVERSITY, priority 2012, dated 2017).

Where “and” joins values, the source holds several entries; their conditions need not be identical. Equal entries are not always repeated. Where two headings read alike, the source gives them in different places. Bounds are passed on as bounds.

Type in all cases: biochemical
The target of one test is T1, human factor XIa (Homo sapiens, UniProt P03951).
T1 construct: purchased Haematologic Technologies (Essex Junction, Vt.); host or cells: human plasma
T1 sequence (P03951 19-387 limits assumed): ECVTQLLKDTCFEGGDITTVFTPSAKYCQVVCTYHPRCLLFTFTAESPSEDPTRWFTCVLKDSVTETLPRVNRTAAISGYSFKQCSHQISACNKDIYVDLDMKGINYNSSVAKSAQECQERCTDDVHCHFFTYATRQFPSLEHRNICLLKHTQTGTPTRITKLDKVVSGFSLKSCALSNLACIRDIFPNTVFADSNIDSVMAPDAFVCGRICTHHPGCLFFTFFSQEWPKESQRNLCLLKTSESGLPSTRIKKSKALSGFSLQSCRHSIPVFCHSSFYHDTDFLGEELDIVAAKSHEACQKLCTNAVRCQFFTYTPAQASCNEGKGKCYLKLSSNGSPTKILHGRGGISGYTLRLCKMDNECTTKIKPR
T1 sequence (P03951 388-625 limits assumed): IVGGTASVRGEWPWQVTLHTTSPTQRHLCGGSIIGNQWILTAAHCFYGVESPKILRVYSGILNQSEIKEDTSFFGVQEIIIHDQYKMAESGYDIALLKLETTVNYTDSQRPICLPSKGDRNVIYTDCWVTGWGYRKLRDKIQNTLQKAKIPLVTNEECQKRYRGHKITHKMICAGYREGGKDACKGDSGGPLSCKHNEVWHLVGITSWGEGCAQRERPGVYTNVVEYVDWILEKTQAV
Kind of test: Direct inhibition of factor XIa, chromogenic substrate S-2366 hydrolysis assay. The procedure:
Solvent A consisted of 25 mM n-hexylamine in water containing 0.1% (v/v) formic acid, while solvent B consisted of 25 mM n-hexylamine in acetonitrile-water mixture (3:1 v/v) containing 0.1% (v/v) formic acid. […] The sample was first monitored for absorbance in the range of 190-400 nm and then directly introduced into the mass spectrometer. ESI-MS detection was performed in positive ion mode for which the capillary voltage was 4 kV, cone voltage was 20 V, desolvation temperature was 350° C. and nitrogen gas flow was maintained at 650 L/hr. Mass scans were collected in the range of 1000-2048 amu within 0.25 s and several of these added to enhanced signal-to-noise ratio. Direct Inhibition of Factor XIa. […] After 10 min incubation, 5 μL factor XIa substrate (345 μM) was rapidly added and the residual FXIa activity was measured from the initial rate of increase in absorbance at 405 nm. […] Relative residual FXIa activity at each concentration of the inhibitor was calculated from the ratio of FXIa activity in the presence and absence of the inhibitor. Logistic equation 1 was used to fit the dose-dependence of residual protease activity to obtain the potency (IC50) and efficacy (ΔY) of inhibition.
Direct Inhibition of Factor XIa by Sulfated QAOs was performed as described in Example 1.
The ability of the sulfated inositol analogs to inhibit factor XIa was studied using the in vitro assay described in Example 1. In this assay, the factor XIa enzyme is anticipated to hydrolyze a particular peptide linkage in the corresponding peptide substrate releasing p-nitroaniline which absorbs at wavelength of 405 nm giving a line slope corresponds to the enzyme activity. The line slope of no inhibitor status is considered as a reference slope and it depends on the relative concentrations of factor XIa enzyme and its substrate. Factor XIa enzyme concentration was decided to get appropriate reference slope of approximately 25-35, whereas the substrate concentration was set to be larger than its affinity to factor XIa enzyme under equilibrium condition, Km. In presence of potential factor XIa inhibitor, the enzyme capacity to hydrolyze the designated peptide linkage in the substrate gets diminished or completely abolished depending on the inhibitor concentration and efficacy. […] Such decreased slope reflects a drop in the catalytic enzyme activity of factor XIa.

Test [1] has as its system human plasma. Kind of test: Activated partial thromboplastin time (APTT) plasma clotting assay. The following applies: human plasma, concentration doubling clotting time. The procedure: (§1) Plasma clotting assays, prothrombin and activated partial thromboplastin time (PT and APTT, respectively), are routinely used to assess the anticoagulation potential of new enzyme inhibitors in an in vitro setting. Whereas PT measures the effect of an inhibitor on the extrinsic pathway of coagulation, APTT measures the effect on the intrinsic pathway.
(§2) Prothrombin Time (PT) and Activated Partial Thromboplastin Time (APTT) were assessed as described in Example 1.

Test [2] relates to human plasma. Kind of test: Prothrombin time (PT) plasma clotting assay. The note with it: for 2 × PT: concentration doubling clotting time. The procedure:
as §1, §2

The target of a further test is T2, FXIa wild type (FXIa-WT) (Homo sapiens, UniProt P03951).
T2 construct: made in house; host or cells: HEK-293
T2 sequence (P03951 19-387 limits assumed): as the sequence (P03951 19-387 limits assumed) above
T2 sequence (P03951 388-625 limits assumed): as the sequence (P03951 388-625 limits assumed) above
Kind of test: Michaelis-Menten kinetics of S-2366 hydrolysis by full-length factor XIa. The note with it: 14S 135 μM, pH 7.4, 37° C. The procedure:
Plasma FIX (500 nM) was incubated with human FXIa (3 nM) in 50 mM Hepes buffer, pH 7.4, containing 125 mM NaCl, 5 mM CaCl2, and 0.1 mg/mL bovine serum albumin at 24° C. […] The primary antibody was goat anti-human FIX polyclonal IgG (Enzyme Research Laboratories, South Bend, Tenn.), and the secondary antibody was horseradish peroxidase-conjugated anti-goat IgG. Detection was by chemiluminescence. […] The inhibition profile was determined over a range of inhibitor concentrations to determine the IC50 of the enzyme-inhibitor complex. The KM of the substrate for its enzyme was used to identify the concentration of the substrate to be used for inhibition studies. […] Active site concentrations for preparations of FXIa were determined by titrations with human antithrombin in an S-2366 cleavage assay. The reaction was monitored using a SpectraMax 340 microtiter plate reader (Molecular Devices Corp., Sunnyvale, Calif.) with a reaction volume of 100 μL and path length of 3 mm. Each assay was performed in triplicate. The concentration of S-2366 was measured using an absorption coefficient of 8,266 M-1cm-1 at λ342 nm, while the free p-nitroaniline concentration was calculated using an absorption coefficient of 9,933 M cm^−1 at λ405 nm. The data was fitted using the standard Michaelis-Menten equation to determine the KM and VMAX. Results

Where [3] appears, read: sulfated QAOs, pH 7.4, 37° C., read-out: IC50 (converted).

Consider `O=c1c2ccccc2nc(-c2ccc(OS(=O)(=O)O)cc2)n1CCCCCn1cc(Cn2c(-c3ccc(OS(=O)(=O)O)cc3)nc3ccccc3c2=O)nn1` [Inhibitor 15S], for which the “ΔY % (efficacy)” value on human factor XIa (sulfated QAOs) worked out at 89 ± 2%. Moreover, the IC50 on human factor XIa (setting [3]) was 59 µM. Moreover, the “2 × APTT” value in the test with human plasma [1] is 1062 µM. The “2 × PT” value in the test on human plasma [2] was found to be 1684 µM.
With `O=C(OC[C@H]1O[C@@H](OC(=O)c2cc(O)c(O)c(O)c2)[C@H](OC(=O)c2cc(O)c(O)c(O)c2)[C@@H](OC(=O)c2cc(O)c(O)c(O)c2)[C@@H]1OC(=O)c1cc(O)c(O)c(O)c1)c1cc(O)c(O)c(O)c1` [Inhibitor 5, pentagalloyl glucopyranoside, reference compound], the “inhibition of FXIa proteolytic activity” value against human factor XIa (highest concentration tested (300 μM)) was “completely inactive”.
Turning to `O=c1c2ccccc2nc(-c2ccc(OS(=O)(=O)O)cc2)n1CCCCn1cc(Cn2c(-c3cccc(OS(=O)(=O)O)c3)nc3ccccc3c2=O)nn1` [Inhibitor 12S], the “ΔY % (efficacy)” value on human factor XIa (sulfated QAOs) is listed as 88 ± 3%. On human factor XIa (setting [3]), the IC50 is 159 ± 2 µM.
For the compound `CC(=O)Oc1cccc(-c2nc3ccccc3c(=O)n2Cc2cn(CCCCn3c(-c4cccc(OS(=O)(=O)O)c4)nc4ccccc4c3=O)nn2)c1` [Inhibitor 7S], on human factor XIa (pH 7.4, 37° C.), the “factor XIa inhibition (in words)” value was “inactive”. Also, the IC50 at human factor XIa (setting [3]) was above 1000 µM.
For the compound `O=c1c2ccccc2nc(-c2cccc(OS(=O)(=O)O)c2)n1CCCCn1cc(Cn2c(-c3ccc(OS(=O)(=O)O)cc3)nc3ccccc3c2=O)nn1` [Inhibitor 14S], the “ΔY % (efficacy)” value on human factor XIa (sulfated QAOs) was 103 ± 5%. Also, the IC50 on human factor XIa (setting [3]) is 91 µM. The VMAX at FXIa wild type (FXIa-WT) is recorded as 5.1±0.5 mAU/min.
Consider `COc1cc(OS(=O)(=O)O)cc2oc(-c3ccc(OS(=O)(=O)O)c(OCc4cn(CCCCn5c(-c6cccc(OS(=O)(=O)O)c6)nc6ccccc6c5=O)nn4)c3)c(OS(=O)(=O)O)c(=O)c12` [Inhibitor 25S], for which, at human factor XIa (setting [3]), the IC50 is above 1000 µM.
With `O=c1c2ccccc2nc(-c2ccc(OS(=O)(=O)O)cc2)n1CCCCCn1nncc1Cn1c(-c2ccc(OS(=O)(=O)O)cc2)nc2ccccc2c1=O` [Inhibitor 29S], the “ΔY % (efficacy)” value at human factor XIa (sulfated QAOs) came to 94 ± 1%. In addition, on human factor XIa (setting [3]), the IC50 is 94 µM and 90 µM.
For `O=c1c2ccccc2nc(-c2cccc(OS(=O)(=O)O)c2)n1CCCn1cc(Cn2c(-c3cccc(OS(=O)(=O)O)c3)nc3ccccc3c2=O)nn1` [Inhibitor 11S], on human factor XIa (sulfated QAOs), the “ΔY % (efficacy)” value was determined as 91 ± 4%.
Consider `CC(=O)Oc1cc(OS(=O)(=O)O)cc(-c2nc3ccccc3c(=O)n2Cc2cn(CCCCn3c(-c4cccc(OS(=O)(=O)O)c4)nc4ccccc4c3=O)nn2)c1` [Inhibitor 9S], for which the “ΔY % (efficacy)” value at human factor XIa (sulfated QAOs) turned out to be 96 ± 1%. On human factor XIa (setting [3]), the IC50 was 153 µM.
Take `COc1cc(-c2nc3ccccc3c(=O)n2CCCCn2cc(Cn3c(-c4ccc(OS(=O)(=O)O)c(OC)c4)nc4ccccc4c3=O)nn2)ccc1OS(=O)(=O)O` [Inhibitor 10S]: the “ΔY % (efficacy)” value at human factor XIa (sulfated QAOs) was 95 ± 1%. The IC50 at human factor XIa (setting [3]) was 139 ± 1 µM.
Take `O=c1c2ccccc2nc(-c2cccc(OS(=O)(=O)O)c2)n1CCCCn1cc(Cn2c(-c3cc(OS(=O)(=O)O)cc(OS(=O)(=O)O)c3)nc3ccccc3c2=O)nn1` [Inhibitor 18S]: the “ΔY % (efficacy)” value on human factor XIa (sulfated QAOs) stood at 93 ± 2%. Besides, the IC50 on human factor XIa (setting [3]) was 213 ± 2 µM.
In the case of `O=c1c2ccccc2nc(-c2ccc(OS(=O)(=O)O)cc2)n1CCCCn1cc(Cn2c(-c3ccc(OS(=O)(=O)O)cc3)nc3ccccc3c2=O)nn1` [Inhibitor 13S], on human factor XIa (sulfated QAOs), the “ΔY % (efficacy)” value was 91 ± 2%. In addition, the IC50 on human factor XIa (setting [3]) was 82 µM and ~80 µM. Also, the “2 × APTT” value in the test with human plasma [1] was determined as 979 µM. Also, in the test with human plasma [2], the “concentration for 2-fold increase in PT” value was “about 1.12 mM” and the “2 × PT” value was 1119 µM.
As for `O=c1c2ccccc2nc(-c2cc(OS(=O)(=O)O)cc(OS(=O)(=O)O)c2)n1CCCCn1cc(Cn2c(-c3cc(OS(=O)(=O)O)cc(OS(=O)(=O)O)c3)nc3ccccc3c2=O)nn1` [Inhibitor 20S], at human factor XIa (setting [3]), the IC50 is above 1000 µM.
Take `CC(=O)Oc1cc(OS(=O)(=O)O)cc(-c2nc3ccccc3c(=O)n2CCCCn2cc(Cn3c(-c4cc(OS(=O)(=O)O)cc(OS(=O)(=O)O)c4)nc4ccccc4c3=O)nn2)c1` [Inhibitor 19S]: the “ΔY % (efficacy)” value at human factor XIa (sulfated QAOs) is on record as 91 ± 2%. The IC50 at human factor XIa (setting [3]) is 273 ± 3 µM.
As for `COc1cc(-c2nc3ccccc3c(=O)n2CCCCn2cc(COc3cc(-c4oc5cc(OS(=O)(=O)O)cc(OC)c5c(=O)c4OS(=O)(=O)O)ccc3OS(=O)(=O)O)nn2)ccc1OS(=O)(=O)O` [Inhibitor 26S], the IC50 at human factor XIa (setting [3]) was 216 µM.
`O=C(OC1C(OC(=O)c2cc(OS(=O)(=O)O)cc(OS(=O)(=O)O)c2)C(OC(=O)c2cc(OS(=O)(=O)O)cc(OS(=O)(=O)O)c2)C(OC(=O)c2cc(OS(=O)(=O)O)cc(OS(=O)(=O)O)c2)C(OC(=O)c2cc(OS(=O)(=O)O)cc(OS(=O)(=O)O)c2)C1OC(=O)c1cc(OS(=O)(=O)O)cc(OS(=O)(=O)O)c1)c1cc(OS(=O)(=O)O)cc(OS(=O)(=O)O)c1` (stereo not drawn) [SMI, Sulfated hexa-substituted myo-inositol]: on human factor XIa (read-out: FXIa-IC50), the IC50 came to 0.09 µM.
On to `O=c1c2ccccc2nc(-c2ccc(OS(=O)(=O)O)cc2)n1Cc1cn(CCn2cc(Cn3c(-c4ccc(OS(=O)(=O)O)cc4)nc4ccccc4c3=O)nn2)nn1` [Inhibitor 28S], for which the “ΔY % (efficacy)” value on human factor XIa (sulfated QAOs) stood at 98 ± 3%.
Regarding `O=c1c2ccccc2nc(-c2cccc(OS(=O)(=O)O)c2)n1CCCCn1cc(Cn2c(-c3cccc(OS(=O)(=O)O)c3)nc3ccccc3c2=O)nn1` [Inhibitor 8S], the “ΔY % (efficacy)” value at human factor XIa (sulfated QAOs) came out at 100 ± 6%.
Take `COc1cc(-c2nc3ccccc3c(=O)n2CCCCn2cc(Cn3c(-c4cccc(OS(=O)(=O)O)c4)nc4ccccc4c3=O)nn2)ccc1OS(=O)(=O)O` [Inhibitor 17S]: the “ΔY % (efficacy)” value at human factor XIa (sulfated QAOs) is reported as 88 ± 5%. Moreover, at human factor XIa (setting [3]), the IC50 is 182 ± 1 µM.

As usually defined, the IC50 is the concentration needed to halve the response being measured.
